Data set [1] deals with P388. Kind of data set: Inhibitory activity against P388/0 Leukemia cells. It is filed as functional, cell-based. As to conditions: Mus musculus.
The nature of data set [2]: Half life measured in PBS. It is filed as ADME.
A further data set has as its system Mus musculus. Kind of data set: Inhibition of human colon tumor (LS174T) xenograft in nude mice. The data set is classed as functional.
Data set [3] is described as follows: Half life measured in rat plasma. The data set is classed as ADME.
Data set [4] relates to P388. Put plainly: Inhibitory activity against P388 Leukemia cells. It is filed as functional, cell-based. Conditions: Mus musculus.

For orientation: IC50 means the concentration that inhibits the measured activity by half. As a reminder, the half-life is how long it takes for the measured level to halve. Read a low half-life as rapid decline. As usually defined, the Inhibition is how much of the control response was suppressed.

`CC[C@@]1(O)C(=O)OCc2c1cc1n(c2=O)Cc2cc3cc(OC(=O)COCCO)ccc3nc2-1` yielded a concentration for half-maximal inhibition (IC50) in the data set on P388 [1] of 55 nM. Also, the results for the half-life in data set [2] and in data set [3] were 5 h and 7.2 min, respectively. The same compound displayed an Inhibition in the data set with Mus musculus of 57.6%.
`CC[C@@]1(O)C(=O)OCc2c1cc1n(c2=O)Cc2cc3ccccc3nc2-1` [CAMPTOTHECIN] yielded an IC50 in the data set on P388 [4] of 7 nM. In addition, the Inhibition with Mus musculus is 4.9%.
In the case of `CC[C@@]1(O)C(=O)OCc2c1cc1n(c2=O)Cc2cc3cc(O)ccc3nc2-1` [HYDROXYCAMPTOTHECIN], in the data set on P388 [4], it took 12 nM to reach half-maximal inhibition (IC50). The compound further had an Inhibition with Mus musculus of 36.5%.
